Experimental data taken from PubChem BioAssay (NCI).
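Grown in 96-well plates, cells were treated for 48 hours with each compound at five concentrations. Insufficient inhibition: endpoint recorded as highest concentration tested. At the TGI there is no net growth.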

Experiments:
Test in all cases: NCI-60 cell line screen, 48 h
NCI-H522 lung = system: NCI-H522 lung
LOX IMVI melanoma = system: LOX IMVI melanoma
MCF7 breast = system: MCF7 breast
CCRF-CEM leukemia = system: CCRF-CEM leukemia
HCT-116 colon = system: HCT-116 colon
HCT-15 colon = system: HCT-15 colon
PC-3 prostate = system: PC-3 prostate
NCI/ADR-RES ovarian = system: NCI/ADR-RES ovarian
DU-145 prostate = system: DU-145 prostate
A549 NSCLC = system: A549 NSCLC
A498 renal = system: A498 renal
NCI-H226 lung = system: NCI-H226 lung
HS 578T breast = system: HS 578T breast
SK-MEL-2 melanoma = system: SK-MEL-2 melanoma
RPMI-8226 leukemia = system: RPMI-8226 leukemia
ACHN renal = system: ACHN renal
SK-MEL-28 melanoma = system: SK-MEL-28 melanoma
HOP-62 NSCLC = system: HOP-62 NSCLC
CAKI-1 renal = system: CAKI-1 renal
NCI-H23 lung = system: NCI-H23 lung
NCI-H460 lung = system: NCI-H460 lung
TK-10 renal = system: TK-10 renal
MALME-3M melanoma = system: MALME-3M melanoma
MDA-MB-231 breast = system: MDA-MB-231 breast
786-0 renal = system: 786-0 renal
SNB-19 CNS = system: SNB-19 CNS
UACC-62 melanoma = system: UACC-62 melanoma
U251 CNS = system: U251 CNS
SK-OV-3 ovarian = system: SK-OV-3 ovarian
HOP-92 NSCLC = system: HOP-92 NSCLC
KM12 colon = system: KM12 colon
M14 melanoma = system: M14 melanoma
BT-549 breast = system: BT-549 breast
SF-295 CNS = system: SF-295 CNS
SF-539 CNS = system: SF-539 CNS
SK-MEL-5 melanoma = system: SK-MEL-5 melanoma
OVCAR-8 ovarian = system: OVCAR-8 ovarian
MDA-MB-435 = system: MDA-MB-435
SW-620 colon = system: SW-620 colon
SNB-75 CNS = system: SNB-75 CNS
COLO 205 colon = system: COLO 205 colon
RXF 393 renal = system: RXF 393 renal
UACC-257 melanoma = system: UACC-257 melanoma
SN12C renal = system: SN12C renal
OVCAR-3 ovarian = system: OVCAR-3 ovarian
T-47D breast = system: T-47D breast
MDA-N = system: MDA-N
HT29 colon = system: HT29 colon
EKVX NSCLC = system: EKVX NSCLC
HCC-2998 colon = system: HCC-2998 colon
SF-268 CNS = system: SF-268 CNS
UO-31 renal = system: UO-31 renal

Structure (SMILES): Nc1ccc2c(c1)C(=O)c1c(F)cccc1-2
- TGI (NCI-H522 lung): > 100 µM
- TGI (LOX IMVI melanoma): > 100 µM
- TGI (MCF7 breast): 41.7 µM
- TGI (CCRF-CEM leukemia): > 100 µM
- TGI (HCT-116 colon): > 100 µM
- TGI (HCT-15 colon): > 100 µM
- TGI (PC-3 prostate): > 100 µM
- TGI (NCI/ADR-RES ovarian): > 100 µM
- TGI (DU-145 prostate): > 100 µM
- TGI (A549 NSCLC): > 100 µM
- TGI (A498 renal): > 100 µM
- TGI (NCI-H226 lung): > 100 µM
- TGI (HS 578T breast): > 100 µM
- TGI (SK-MEL-2 melanoma): > 100 µM
- TGI (RPMI-8226 leukemia): > 100 µM
- TGI (ACHN renal): > 100 µM
- TGI (SK-MEL-28 melanoma): > 100 µM
- TGI (HOP-62 NSCLC): > 100 µM
- TGI (CAKI-1 renal): > 100 µM
- TGI (NCI-H23 lung): > 100 µM
- TGI (NCI-H460 lung): > 100 µM
- TGI (TK-10 renal): > 100 µM
- TGI (MALME-3M melanoma): > 100 µM
- TGI (MDA-MB-231 breast): > 100 µM
- TGI (786-0 renal): > 100 µM
- TGI (SNB-19 CNS): > 100 µM
- TGI (UACC-62 melanoma): > 100 µM
- TGI (U251 CNS): > 100 µM
- TGI (SK-OV-3 ovarian): > 100 µM
- TGI (HOP-92 NSCLC): 93.3 µM
- TGI (KM12 colon): > 100 µM
- TGI (M14 melanoma): > 100 µM
- TGI (BT-549 breast): > 100 µM
- TGI (SF-295 CNS): > 100 µM
- TGI (SF-539 CNS): 81.1 µM
- TGI (SK-MEL-5 melanoma): 95.1 µM
- TGI (OVCAR-8 ovarian): > 100 µM
- TGI (MDA-MB-435): > 100 µM
- TGI (SW-620 colon): > 100 µM
- TGI (SNB-75 CNS): > 100 µM
- TGI (COLO 205 colon): > 100 µM
- TGI (RXF 393 renal): > 100 µM
- TGI (UACC-257 melanoma): > 100 µM
- TGI (SN12C renal): > 100 µM
- TGI (OVCAR-3 ovarian): > 100 µM
- TGI (T-47D breast): > 100 µM
- TGI (MDA-N): > 100 µM
- TGI (HT29 colon): > 100 µM
- TGI (EKVX NSCLC): 37.7 µM
- TGI (HCC-2998 colon): > 100 µM
- TGI (SF-268 CNS): > 100 µM
- TGI (UO-31 renal): > 100 µM
